Results: patent US20250243196A1, “CITRON KINASE INHIBITORS” (The Cleveland Clinic Foundation, priority 2021, published 2025)

Each compound was assayed against Citron kinase (Homo sapiens (Human), UniProt O14578) (assay: Radiometric citron kinase assay (Eurofins Cat #16-040KP)). Conditions: mean of at least two independent assays; read-out: Radiometric CitK IC50.
Chain of Citron kinase (O14578 whole entry): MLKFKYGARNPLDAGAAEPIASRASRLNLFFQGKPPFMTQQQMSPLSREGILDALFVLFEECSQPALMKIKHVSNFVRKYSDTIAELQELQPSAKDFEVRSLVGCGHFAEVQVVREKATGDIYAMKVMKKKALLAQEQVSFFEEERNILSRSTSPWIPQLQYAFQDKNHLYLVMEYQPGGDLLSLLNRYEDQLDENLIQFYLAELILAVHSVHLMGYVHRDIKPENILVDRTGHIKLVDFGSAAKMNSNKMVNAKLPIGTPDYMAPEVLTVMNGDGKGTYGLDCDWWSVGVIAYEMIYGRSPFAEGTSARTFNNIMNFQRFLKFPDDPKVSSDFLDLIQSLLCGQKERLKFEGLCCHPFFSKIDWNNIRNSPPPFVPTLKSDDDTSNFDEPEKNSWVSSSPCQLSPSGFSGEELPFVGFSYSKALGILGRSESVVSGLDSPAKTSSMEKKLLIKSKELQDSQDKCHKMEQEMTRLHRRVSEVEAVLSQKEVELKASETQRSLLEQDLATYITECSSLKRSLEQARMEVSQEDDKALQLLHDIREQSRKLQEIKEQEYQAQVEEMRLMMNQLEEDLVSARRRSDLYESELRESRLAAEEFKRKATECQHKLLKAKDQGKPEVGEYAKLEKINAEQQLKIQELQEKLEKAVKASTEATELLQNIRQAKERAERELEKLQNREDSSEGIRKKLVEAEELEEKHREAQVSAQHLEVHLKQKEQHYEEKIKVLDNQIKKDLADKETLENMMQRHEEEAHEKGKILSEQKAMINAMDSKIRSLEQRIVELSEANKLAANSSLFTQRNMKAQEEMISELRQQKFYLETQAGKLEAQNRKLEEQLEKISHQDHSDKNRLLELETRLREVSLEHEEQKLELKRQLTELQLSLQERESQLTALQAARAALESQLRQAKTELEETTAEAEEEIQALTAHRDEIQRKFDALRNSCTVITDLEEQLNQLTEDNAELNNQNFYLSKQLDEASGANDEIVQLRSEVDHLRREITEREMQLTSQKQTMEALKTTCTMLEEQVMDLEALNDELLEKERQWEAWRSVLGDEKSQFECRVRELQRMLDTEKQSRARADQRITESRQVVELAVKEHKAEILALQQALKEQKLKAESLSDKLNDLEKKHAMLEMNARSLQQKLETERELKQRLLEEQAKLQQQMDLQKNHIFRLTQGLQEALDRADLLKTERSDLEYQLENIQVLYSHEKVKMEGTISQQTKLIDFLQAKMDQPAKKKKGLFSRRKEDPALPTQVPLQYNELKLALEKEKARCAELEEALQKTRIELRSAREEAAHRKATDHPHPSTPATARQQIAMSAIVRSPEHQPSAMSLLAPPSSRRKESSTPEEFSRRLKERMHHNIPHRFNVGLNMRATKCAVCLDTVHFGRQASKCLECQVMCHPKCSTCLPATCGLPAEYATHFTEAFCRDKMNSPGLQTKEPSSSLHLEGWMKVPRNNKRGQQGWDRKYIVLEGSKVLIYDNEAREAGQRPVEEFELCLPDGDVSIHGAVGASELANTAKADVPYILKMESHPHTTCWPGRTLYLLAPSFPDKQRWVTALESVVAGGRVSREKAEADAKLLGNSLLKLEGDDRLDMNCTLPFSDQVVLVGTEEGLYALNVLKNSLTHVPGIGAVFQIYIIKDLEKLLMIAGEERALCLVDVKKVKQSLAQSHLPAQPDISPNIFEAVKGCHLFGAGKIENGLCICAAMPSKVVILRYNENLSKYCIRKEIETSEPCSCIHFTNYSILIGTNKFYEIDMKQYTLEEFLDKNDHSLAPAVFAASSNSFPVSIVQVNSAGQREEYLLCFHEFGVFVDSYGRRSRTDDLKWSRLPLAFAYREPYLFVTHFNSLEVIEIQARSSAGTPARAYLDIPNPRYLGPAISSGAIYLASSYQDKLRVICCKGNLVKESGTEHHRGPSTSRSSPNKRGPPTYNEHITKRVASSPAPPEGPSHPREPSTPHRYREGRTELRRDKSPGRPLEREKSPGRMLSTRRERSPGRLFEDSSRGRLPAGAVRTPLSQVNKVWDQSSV
Assay type: biochemical
Text: In some embodiments, the step of contacting the sample with the compound comprises administering the compound to a subject (e.g., a subject) suffering from cancer. Methods of determining kinase inhibition are well known in the art. For example, kinase activity of an enzyme and the inhibitory capacity of a test compound can be determined by measuring enzyme specific phosphorylation of a substrate. Commercial assays and kits can be employed. For example, kinase inhibition can be determined using a radiometric binding assay, such as using KinaseProfiler™ technology (Eurofins Discovery). This assay method directly detects product formation without the use of modified substrates or coupling enzymes. Test compounds are incubated with kinase, substrate, required cofactors and radioisotope labeled ATP. Following incubation, unreacted radioactive ATP is removed by washing and incorporation of the radiolabeled phosphate into the kinase substrate is assayed to detect phosphoryltransferase activity, which is directly proportional to the amount of phosphorylated substrate. Inhibition of the kinase by a kinase inhibitor prevents phosphorylation of the substrate and thereby limits the incorporation of radiolabeled phosphate. Such an assay is compatible with a microwell assay format, allowing simultaneous determination of IC50 of multiple compounds.
Compounds were screened for biochemical kinase activity (Eurofins Discovery, France) using one of two assays. […] All values in Table 1 are the mean of at least two independent assays.
An IC50 of 1060 nM was found for `Cc1cc(NC(=O)[C@H](N)C(C)(C)C)c(F)cc1-c1ccnc2[nH]ccc12` [Compound F-74, (2R)-2-Amino-N-[2-fluoro-5-methyl-4-(1H-pyrrolo[2,3-b]pyridin-4-yl)phenyl]-3,3-dimethyl-butanamide] in this work.
An IC50 of 316 nM was found for `CC(C)C[C@@H](N)C(=O)Nc1ccc(-c2ccnc3[nH]ccc23)cc1C(F)(F)F` [Compound F-76, (2R)-2-Amino-4-methyl-N-[4-(1H-pyrrolo[2,3-b]pyridin-4-yl)-2-(trifluoromethyl)phenyl]pentanamide] in this work.
An IC50 of 21.5 nM was found for `CC(C)C[C@@H](N)C(=O)Nc1ccc(-c2ccnc3[nH]ccc23)c(OC(F)F)c1` [Compound F-82, (R)-2-Amino-N-(3-(difluoromethoxy)-4-(1H-pyrrolo[2,3-b]pyridin-4-yl)phenyl)-4-methylpentanamide] in this work.
An IC50 of 245 nM was found for `CC(C)C[C@@H](N)C(=O)Nc1cccc(-c2ccnc3[nH]ccc23)c1` [Compound F-87, (2R)-2-Amino-4-methyl-N-[3-(1H-pyrrolo[2,3-b]pyridin-4-yl)phenyl]pentanamide] in this work.
An IC50 of 57.5 nM was found for `CCc1cc(NC(=O)[C@H](N)C(C)(C)C)ccc1-c1ccnc2[nH]ccc12` [Compound F-88, (2R)-2-Amino-N-[3-ethyl-4-(1H-pyrrolo[2,3-b]pyridin-4-yl)phenyl]-3,3-dimethyl-butanamide] in this work.
An IC50 of 48.8 nM was found for `Cc1cc2c(-c3ccc(NC(=O)[C@H](N)C(C)(C)C)cc3C)ccnc2[nH]1` [Compound F-91, (2R)-2-Amino-3,3-dimethyl-N-[3-methyl-4-(2-methyl-1H-pyrrolo[2,3-b]pyridin-4-yl)phenyl]butanamide] in this work.
An IC50 of 415 nM was found for `Cc1cc2c(-c3ccc(NC(=O)[C@H](N)Cc4ccccc4)cc3)ccnc2[nH]1` [Compound F-92, (2R)-2-Amino-N-[4-(2-methyl-1H-pyrrolo[2,3-b]pyridin-4-yl)phenyl]-3-phenyl-propanamide] in this work.
An IC50 of 121 nM was found for `CCc1cc(NC(=O)[C@H](N)C(C)(C)C)ccc1-c1ccnc2[nH]c(C)cc12` [Compound F-93, (2R)-2-Amino-N-[3-ethyl-4-(2-methyl-1H-pyrrolo[2,3-b]pyridin-4-yl)phenyl]-3,3-dimethyl-butanamide] in this work.
An IC50 of 43.7 nM was found for `CN[C@H](CC(C)C)C(=O)Nc1ccc(-c2ccnc3[nH]c(C)cc23)cc1` [Compound F-94, (2R)-4-Methyl-2-(methylamino)-N-[4-(2-methyl-1H-pyrrolo[2,3-b]pyridin-4-yl)phenyl]pentanamide] in this work.
An IC50 of 240 nM was found for `Cc1cc2c(-c3ccc(NC(=O)[C@H](N)CC(C)C)nc3C)ccnc2[nH]1` [Compound F-95, (2R)-2-Amino-4-methyl-N-[6-methyl-5-(2-methyl-1H-pyrrolo[2,3-b]pyridin-4-yl)-2-pyridyl]pentanamide] in this work.
An IC50 of 96.9 nM was found for `Cc1cc2c(-c3ncc(NC(=O)[C@H](N)CC(C)(C)C)cc3C)ccnc2[nH]1` [Compound F-96, (2R)-2-Amino-4,4-dimethyl-N-[5-methyl-6-(2-methyl-1H-pyrrolo[2,3-b]pyridin-4-yl)-3-pyridyl]pentanamide] in this work.
An IC50 of 29.3 nM was found for `Cc1cc2c(-c3ccc(NC(=O)[C@H](N)CC(C)(C)C)cc3C(F)F)ccnc2[nH]1` [Compound F-97, (2R)-2-Amino-N-[3-(difluoromethyl)-4-(2-methyl-1H-pyrrolo[2,3-b]pyridin-4-yl)phenyl]-4,4-dimethyl-pentanamide] in this work.
An IC50 of 30.4 nM was found for `Cc1cc(NC(=O)[C@H](N)CC(C)C)ccc1-c1ccnc2[nH]c(C(F)(F)F)cc12` [Compound F-98, (2R)-2-Amino-4-methyl-N-[3-methyl-4-[2-(trifluoromethyl)-1H-pyrrolo[2,3-b]pyridin-4-yl]phenyl]pentanamide] in this work.
An IC50 of 103 nM was found for `Cc1cc(NC(=O)[C@H](N)CC(C)(C)C)ccc1-c1ccnc2[nH]c(C(F)(F)F)cc12` [Compound F-99, (2R)-2-Amino-4,4-dimethyl-N-[3-methyl-4-[2-(trifluoromethyl)-1H-pyrrolo[2,3-b]pyridin-4-yl]phenyl]pentanamide] in this work.
An IC50 of 380 nM was found for `Cc1cc(NC(=O)[C@H](N)C(C)(C)C)ccc1-c1ccnc2[nH]c(C(F)(F)F)cc12` [Compound F-100, (2R)-2-Amino-3,3-dimethyl-N-[3-methyl-4-[2-(trifluoromethyl)-1H-pyrrolo[2,3-b]pyridin-4-yl]phenyl]butanamide] in this work.
An IC50 of 18.1 nM was found for `Cc1cc(NC(=O)[C@H](N)CC(C)C)ccc1-c1ccnc2[nH]c(C(F)F)cc12` [Compound F-101, (2R)-2-Amino-N-[4-[2-(difluoromethyl)-1H-pyrrolo[2,3-b]pyridin-4-yl]-3-methyl-phenyl]-4-methyl-pentanamide] in this work.
An IC50 of 11.7 nM was found for `Cc1cc(NC(=O)[C@H](N)CC(C)(C)C)ccc1-c1ccnc2[nH]c(C(F)F)cc12` [Compound F-102, (2R)-2-Amino-N-[4-[2-(difluoromethyl)-1H-pyrrolo[2,3-b]pyridin-4-yl]-3-methyl-phenyl]-4,4-dimethyl-pentanamide] in this work.
An IC50 of 68.1 nM was found for `Cc1cc(NC(=O)[C@H](N)C(C)(C)C)ccc1-c1ccnc2[nH]c(C(F)F)cc12` [Compound F-103, (2R)-2-Amino-N-[4-[2-(difluoromethyl)-1H-pyrrolo[2,3-b]pyridin-4-yl]-3-methyl-phenyl]-3,3-dimethyl-butanamide] in this work.
An IC50 of 418 nM was found for `CC(C)(C)C[C@@H](N)C(=O)Nc1ccc(-c2ccnc3[nH]c(C(F)(F)F)cc23)nc1` [Compound F-104, (2R)-2-Amino-4,4-dimethyl-N-[6-[2-(trifluoromethyl)-1H-pyrrolo[2,3-b]pyridin-4-yl]-3-pyridyl]pentanamide] in this work.
An IC50 of 266 nM was found for `CC(C)(C)C[C@@H](N)C(=O)Nc1ccc(-c2ccnc3[nH]c(C(F)F)cc23)nc1` [Compound F-105, (2R)-2-Amino-N-[6-[2-(difluoromethyl)-1H-pyrrolo[2,3-b]pyridin-4-yl]-3-pyridyl]-4,4-dimethyl-pentanamide] in this work.
An IC50 of 371 nM was found for `Cc1cnc2[nH]ccc2c1-c1ccc(NC(=O)[C@H](N)C(C)(C)C)cc1` [Compound F-107, (2R)-2-Amino-3,3-dimethyl-N-[4-(5-methyl-1H-pyrrolo[2,3-b]pyridin-4-yl)phenyl]butanamide] in this work.
An IC50 of 29.6 nM was found for `CC(C)(C)[C@@H](N)C(=O)Nc1nc(-c2ccnc3[nH]ccc23)cs1` [Compound F-111, (2R)-2-Amino-3,3-dimethyl-N-[4-(1H-pyrrolo[2,3-b]pyridin-4-yl)thiazol-2-yl]butanamide] in this work.
An IC50 of 122 nM was found for `Cc1cc2c(-c3csc(NC(=O)[C@H](N)C(C)(C)C)n3)ccnc2[nH]1` [Compound F-112, (2R)-2-Amino-3,3-dimethyl-N-[4-(2-methyl-1H-pyrrolo[2,3-b]pyridin-4-yl)thiazol-2-yl]butanamide] in this work.
An IC50 of 111 nM was found for `Cc1cc2c(-c3csc(NC(=O)[C@@H](N)C(C)(C)C)n3)ccnc2[nH]1` [Compound F-113, (2S)-2-Amino-3,3-dimethyl-N-[4-(2-methyl-1H-pyrrolo[2,3-b]pyridin-4-yl)thiazol-2-yl]butanamide] in this work.
An IC50 of 244 nM was found for `Cc1cc2c(-c3csc(NC(=O)[C@H](N)C(C)C)n3)ccnc2[nH]1` [Compound F-114, (2R)-2-Amino-3-methyl-N-[4-(2-methyl-1H-pyrrolo[2,3-b]pyridin-4-yl)thiazol-2-yl]butanamide] in this work.
An IC50 of 129 nM was found for `Cc1cc2c(-c3csc(NC(=O)C(N)C4(C(F)(F)F)CC4)n3)ccnc2[nH]1` (centres unmarked) [Compound F-115, 2-Amino-N-[4-(2-methyl-1H-pyrrolo[2,3-b]pyridin-4-yl)thiazol-2-yl]-2-[1-(trifluoromethyl)cyclopropyl]acetamide] in this work.
